Experimental data as given in patent US11442072B2, “Method for measuring LDL aggregation” (Jenny and Antti Wihuri Foundation, priority 2018, dated 2022).

B1: bcSMase: SMase from Bacillus cereus (Sigma-Aldrich) (protein, UniProt P09599 28-333, looked up)
Sphingomyelinase C: DTSTDQNNTLKVMTHNVYMLSTNLYPNWGQSQRADLIGAADYIKNQDVVILNEVFDNSASDRLLGNLKKEYPNQTAVLGRSNGNEWDKTLGSYSSSTPEDGGVAIVSKWPIVEKIQYVFAKGCGPDNLSNKGFVYTKIKKNDRFVHVIGTHLQAEDSMCGKTSPASVRTNQLKEIQDFIKNKNIPNDEYVLFGGDMNVNKINAENNSDSEYASMFKTLHASIPSYTGHTATWDATTNSIAKYNFPDSPAEYLDYIIASKDHANPSFIENKVLQPKSPQWTVTSWLKKYTYDDYSDHYPVAATISMK

Columns and labels:
[1] = molecular target: T1, apoB-100 (Homo sapiens, UniProt P04114); test: Circular dichroism of phospholipid-enriched LDL after SMase treatment; assay type: biochemical; conditions: lipid-enriched LDL, SMase 30 min
T1 construct: from tissue; host or cells: human blood plasma (LDL fraction d=1.019-1.063 g/ml, ultracentrifugation)
T1 sequence (P04114 28-4563): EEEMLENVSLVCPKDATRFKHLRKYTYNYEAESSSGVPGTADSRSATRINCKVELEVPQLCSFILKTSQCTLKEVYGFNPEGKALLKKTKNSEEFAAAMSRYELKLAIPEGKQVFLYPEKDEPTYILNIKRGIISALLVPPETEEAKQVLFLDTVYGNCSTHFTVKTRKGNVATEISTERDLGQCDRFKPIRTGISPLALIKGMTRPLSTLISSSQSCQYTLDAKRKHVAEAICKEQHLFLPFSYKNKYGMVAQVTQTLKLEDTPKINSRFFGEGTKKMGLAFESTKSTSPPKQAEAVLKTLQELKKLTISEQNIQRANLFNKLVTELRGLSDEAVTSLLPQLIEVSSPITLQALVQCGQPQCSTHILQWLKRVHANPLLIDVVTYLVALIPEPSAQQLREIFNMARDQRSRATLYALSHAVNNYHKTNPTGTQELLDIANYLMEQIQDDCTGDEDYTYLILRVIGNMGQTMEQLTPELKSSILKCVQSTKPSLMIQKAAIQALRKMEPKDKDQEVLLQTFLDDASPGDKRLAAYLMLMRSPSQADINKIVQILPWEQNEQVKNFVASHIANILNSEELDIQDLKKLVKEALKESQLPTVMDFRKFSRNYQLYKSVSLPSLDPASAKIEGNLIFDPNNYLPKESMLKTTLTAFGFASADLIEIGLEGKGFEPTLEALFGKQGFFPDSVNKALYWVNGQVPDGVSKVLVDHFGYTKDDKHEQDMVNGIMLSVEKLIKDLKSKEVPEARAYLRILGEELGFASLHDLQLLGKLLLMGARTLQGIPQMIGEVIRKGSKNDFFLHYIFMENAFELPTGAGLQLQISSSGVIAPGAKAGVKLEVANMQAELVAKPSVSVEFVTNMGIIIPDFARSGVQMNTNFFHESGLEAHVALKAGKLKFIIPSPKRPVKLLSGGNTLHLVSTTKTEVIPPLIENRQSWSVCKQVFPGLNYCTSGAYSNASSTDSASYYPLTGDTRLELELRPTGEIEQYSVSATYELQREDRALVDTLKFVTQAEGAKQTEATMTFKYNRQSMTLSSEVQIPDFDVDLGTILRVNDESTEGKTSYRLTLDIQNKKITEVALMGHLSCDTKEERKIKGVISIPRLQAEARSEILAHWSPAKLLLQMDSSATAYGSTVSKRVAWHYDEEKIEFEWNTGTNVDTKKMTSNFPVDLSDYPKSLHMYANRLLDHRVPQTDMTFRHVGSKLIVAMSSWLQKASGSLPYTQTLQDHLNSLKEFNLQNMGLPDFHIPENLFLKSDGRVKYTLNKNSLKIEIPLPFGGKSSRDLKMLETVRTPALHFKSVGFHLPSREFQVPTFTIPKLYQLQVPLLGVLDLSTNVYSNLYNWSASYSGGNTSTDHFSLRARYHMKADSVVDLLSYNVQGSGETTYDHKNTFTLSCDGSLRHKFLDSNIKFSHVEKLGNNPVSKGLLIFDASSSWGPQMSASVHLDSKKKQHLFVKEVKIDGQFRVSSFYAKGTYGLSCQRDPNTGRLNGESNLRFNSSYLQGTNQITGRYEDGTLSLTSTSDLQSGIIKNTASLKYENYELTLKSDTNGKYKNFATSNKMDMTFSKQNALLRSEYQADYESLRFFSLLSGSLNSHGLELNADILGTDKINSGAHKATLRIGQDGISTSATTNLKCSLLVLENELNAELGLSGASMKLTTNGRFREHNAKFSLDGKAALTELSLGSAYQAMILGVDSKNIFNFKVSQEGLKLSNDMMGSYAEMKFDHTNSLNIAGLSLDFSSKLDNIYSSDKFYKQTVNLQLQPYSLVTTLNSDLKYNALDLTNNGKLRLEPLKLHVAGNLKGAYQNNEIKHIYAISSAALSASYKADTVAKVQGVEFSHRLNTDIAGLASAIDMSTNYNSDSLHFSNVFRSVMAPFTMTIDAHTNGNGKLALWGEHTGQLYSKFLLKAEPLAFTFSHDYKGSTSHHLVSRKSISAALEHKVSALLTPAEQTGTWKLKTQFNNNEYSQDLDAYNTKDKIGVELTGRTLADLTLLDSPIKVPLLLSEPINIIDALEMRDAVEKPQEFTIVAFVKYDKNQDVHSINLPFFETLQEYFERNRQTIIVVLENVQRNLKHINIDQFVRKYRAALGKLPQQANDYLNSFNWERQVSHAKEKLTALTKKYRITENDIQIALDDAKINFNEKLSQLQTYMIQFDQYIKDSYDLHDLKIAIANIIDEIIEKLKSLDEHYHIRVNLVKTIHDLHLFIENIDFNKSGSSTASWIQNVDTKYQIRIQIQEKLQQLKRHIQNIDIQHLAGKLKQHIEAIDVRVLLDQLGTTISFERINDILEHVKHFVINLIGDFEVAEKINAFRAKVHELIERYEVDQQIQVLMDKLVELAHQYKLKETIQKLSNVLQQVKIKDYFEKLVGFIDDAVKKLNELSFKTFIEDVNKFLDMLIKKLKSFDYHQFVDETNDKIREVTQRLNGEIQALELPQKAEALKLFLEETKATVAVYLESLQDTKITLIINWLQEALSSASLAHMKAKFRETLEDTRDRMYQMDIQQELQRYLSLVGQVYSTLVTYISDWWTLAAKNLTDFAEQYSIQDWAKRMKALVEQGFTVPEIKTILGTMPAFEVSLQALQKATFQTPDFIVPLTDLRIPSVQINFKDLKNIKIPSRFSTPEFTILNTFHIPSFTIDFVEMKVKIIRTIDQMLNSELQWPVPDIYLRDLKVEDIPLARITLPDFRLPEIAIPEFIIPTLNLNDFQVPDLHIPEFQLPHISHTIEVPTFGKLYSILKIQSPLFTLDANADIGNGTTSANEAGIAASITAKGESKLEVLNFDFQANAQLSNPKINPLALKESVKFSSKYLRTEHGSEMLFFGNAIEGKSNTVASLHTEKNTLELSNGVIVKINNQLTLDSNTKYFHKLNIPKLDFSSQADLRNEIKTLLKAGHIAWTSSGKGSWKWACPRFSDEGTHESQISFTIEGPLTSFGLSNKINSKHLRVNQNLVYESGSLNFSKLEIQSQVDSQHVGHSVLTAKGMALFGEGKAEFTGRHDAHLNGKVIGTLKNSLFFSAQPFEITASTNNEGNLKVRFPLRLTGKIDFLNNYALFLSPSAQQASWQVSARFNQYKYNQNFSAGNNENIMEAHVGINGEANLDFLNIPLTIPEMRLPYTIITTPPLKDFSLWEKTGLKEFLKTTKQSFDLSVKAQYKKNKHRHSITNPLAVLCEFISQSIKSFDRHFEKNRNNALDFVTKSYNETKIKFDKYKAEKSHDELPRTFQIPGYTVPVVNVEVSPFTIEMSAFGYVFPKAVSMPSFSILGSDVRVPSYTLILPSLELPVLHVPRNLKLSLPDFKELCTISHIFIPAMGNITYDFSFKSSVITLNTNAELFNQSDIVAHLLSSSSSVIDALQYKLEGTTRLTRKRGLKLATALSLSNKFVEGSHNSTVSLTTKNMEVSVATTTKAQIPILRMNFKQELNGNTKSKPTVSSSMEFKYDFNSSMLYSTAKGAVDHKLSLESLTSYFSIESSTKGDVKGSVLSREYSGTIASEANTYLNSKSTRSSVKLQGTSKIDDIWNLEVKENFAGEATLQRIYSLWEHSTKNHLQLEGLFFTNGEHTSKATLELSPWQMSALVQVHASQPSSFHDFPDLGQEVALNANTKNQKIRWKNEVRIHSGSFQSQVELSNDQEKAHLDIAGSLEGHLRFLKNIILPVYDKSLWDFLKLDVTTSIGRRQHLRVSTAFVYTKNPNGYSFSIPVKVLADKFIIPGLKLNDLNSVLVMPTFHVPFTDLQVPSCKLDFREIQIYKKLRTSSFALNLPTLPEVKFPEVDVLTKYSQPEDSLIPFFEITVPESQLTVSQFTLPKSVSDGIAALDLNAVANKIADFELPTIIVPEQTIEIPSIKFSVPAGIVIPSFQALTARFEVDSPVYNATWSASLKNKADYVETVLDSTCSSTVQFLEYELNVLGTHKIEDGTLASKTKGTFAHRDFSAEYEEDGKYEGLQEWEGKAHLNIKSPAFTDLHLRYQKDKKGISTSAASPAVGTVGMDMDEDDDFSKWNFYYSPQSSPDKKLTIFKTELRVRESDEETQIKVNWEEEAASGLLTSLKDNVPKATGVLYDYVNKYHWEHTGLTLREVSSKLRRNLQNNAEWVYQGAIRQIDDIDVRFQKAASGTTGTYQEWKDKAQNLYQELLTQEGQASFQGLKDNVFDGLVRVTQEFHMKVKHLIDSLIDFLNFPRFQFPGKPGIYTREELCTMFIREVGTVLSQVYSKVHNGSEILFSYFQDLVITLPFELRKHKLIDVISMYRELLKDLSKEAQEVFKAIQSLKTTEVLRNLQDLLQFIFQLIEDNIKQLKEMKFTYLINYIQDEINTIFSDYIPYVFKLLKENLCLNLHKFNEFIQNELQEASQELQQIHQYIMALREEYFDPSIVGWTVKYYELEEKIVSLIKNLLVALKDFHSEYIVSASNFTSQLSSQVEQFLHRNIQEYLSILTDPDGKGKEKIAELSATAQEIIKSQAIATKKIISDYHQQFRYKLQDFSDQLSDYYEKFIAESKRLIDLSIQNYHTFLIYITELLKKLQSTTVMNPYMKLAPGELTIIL
Protocol: Samples of control and SM-, PC- and LPC-enriched LDL particles (1 mg/ml) were treated with SMase for 30-min and lipolysis was stopped by 10 mM EDTA. The LDL particles (50 μg/ml) were analyzed by CD as described previously (11,12).

[2] = molecular target: T2, LDL particles (Homo sapiens, UniProt P04114); test: Ex vivo enrichment of LDL with phospholipid vesicles, then hrSMase-induced aggregation (DLS); assay type: biochemical; conditions: LDL from four healthy volunteers, enriched with 1 mM phospholipid vesicles
T2 construct: from tissue; host or cells: human blood plasma (LDL fraction d=1.019-1.063 g/ml, ultracentrifugation)
T2 sequence (P04114 28-4563): as above
Protocol: In the standard assay, LDL isolated from human plasma was extensively dialyzed against 20 mM MES buffer, pH 5.5, containing 150 mM NaCl and 50 μM ZnCl2 and its apoB-100 concentration was determined by ELISA (Mabtech). The sample was diluted with the same buffer to give a final concentration of 0.2 mg of apoB-100/ml and 75 μg/ml of hrSMase was added to LDL. The size of LDL was determined immediately and once every hour for up to 6-hours. An aliquot was taken at the same time points for phosphorylcholine measurement. The degree of SM hydrolysis was determined by measuring the amount of phosphorylcholine from the samples with Amplex Red reagent (Invitrogen).
To exchange LDL surface phospholipids, LDL (2 mg/ml) was incubated with phospholipid vesicles (1 mM phosphatidylcholine 18:1/16:0 (1-palmityl-2-oleyl-sn-glycero-3-phosphocholine), lysophosphatidylcholine 16:0 (1-Palmitoyl-2-Hydroxy-sn-Glycero-3-Phosphocoline) or sphingomyelin 16:0 (N-Palmitoyl-D-erythro-sphingosylphosphorylcholine) each from Avanti Polar Lipids) overnight at 37° C. in buffer A (5 mM Tris, 150 mM NaCl, 1 mM EDTA, pH 7.4). The vesicles had been prepared by sonicating 10 mM lipid solutions using a Branson Sonifier 250 sonicator (6 times for 5 minutes) in buffer A. Vesicles were removed with sequential ultracentrifugation (d<1.019 g/ml KBr) repeated twice. […]

[3] = test system: LDL; test: LDL aggregation induced by oxidation, proteolysis or lipolysis, followed by DLS; assay type: biochemical, human; conditions: LDL 0.5 mg/ml from four donors; hrSMase at pH 5.5, other agents at pH 7.4
Protocol: Firstly, inter-individual variability in LDL aggregation using agents that have been reported to cause LDL aggregation was tested. LDL aggregation was induced at LDL concentration of 0.5 mg/ml by oxidation (incubation with 5 μM CuSO4), by proteolysis (incubation with 0.1 mg/ml α-chymotrypsin from bovine pancreas (Sigma-Aldrich)), or by lipolysis (incubation with 50 mU/ml phospholipase A2 (PLA2) from bee venom (Sigma-Aldrich)), with 200 mU/ml SMase from Bacillus cereus (bcSMase, Sigma-Aldrich)), or with 75 μg/ml hrSMase (a kind gift from Genzyme or produced in house). The incubation buffer was 20 mM Tris-HCl, pH 7.4, containing 150 mM NaCl and 2 mM CaCl2 and 2 mM MgCl2, except in the case of hrSMase, where the incubation buffer was 20 mM MES, pH 5.5, containing 150 mM NaCl and 50 μM ZnCl2. LDL size was determined at the beginning of the incubation and aggregate size was determined at the indicated time points by dynamic light scattering (DLS) (Zetasizer Nano, Malvern Instruments, Malvern Works, UK or Wyatt DynaPro Plate Reader 11, Wyatt Technology, California, USA).

Molecule	SMase-induced conformational changes in apoB-100 [1]	Susceptibility of lipid-enriched LDL to aggregate during incubation with hrSMase, vs control LDL [2]	Aggregation of LDL [3]
CCCCCCCCCCCCC/C=C/[C@@H](O)[C@H](COP(=O)([O-])OCC[N+](C)(C)C)NC(=O)CCCCCCCCCCCCCCC [SM 18:1/16:0, N-Palmitoyl-D-erythro-sphingosylphosphorylcholine]	enhanced	more susceptible	–
CCCCCCCCCCCCCCCC(=O)OC[C@@H](O)COP(=O)([O-])OCC[N+](C)(C)C [LPC 16:0, 1-Palmitoyl-2-Hydroxy-sn-Glycero-3-Phosphocoline]	–	less susceptible	–
B1	–	–	caused aggregation
